{"source": "patent US20260284005A1", "about": "“INHIBITING MITOGEN-ACTIVATED PROTEIN (MAP)/ERK KINASE (MEK)1 AND MEK2 AND RELATED METHODS OF TREATMENT” (priority 2023, published 2026)", "key": {"NCI-H820 cells": {"test_system": "NCI-H820 cells", "assay": "3D-TGA", "type": "cell-based", "details": "Homo sapiens, read-out: IC50 in 3D-TGA Osimertinib; NCI-H820, LUN, EGFR T790M; agent alone"}, "LS411N cells": {"test_system": "LS411N cells", "assay": "3D-TGA", "type": "cell-based", "details": "Homo sapiens, LS-411N, LS411N, COL, BRAF V600E"}, "NCI-H358 cells": {"test_system": "NCI-H358 cells", "assay": "3D-TGA", "type": "cell-based, human", "details": "Homo sapiens, read-out: IC50 in 3D-TGA Osimertinib; NCI-H358, LUN, KRAS G12C; agent alone"}, "SK-CO-1 cells": {"test_system": "SK-CO-1 cells", "assay": "3D-TGA", "type": "cell-based", "details": "Homo sapiens, read-out: IC50 in 3D-TGA Osimertinib; SK-CO-1, COL, KRAS G12V; agent alone"}, "NCI-H1975 cells": {"test_system": "NCI-H1975 cells", "assay": "3D-TGA", "type": "cell-based", "details": "Homo sapiens, read-out: IC50 in 3D-TGA Osimertinib; NCI-H1975, LUN, EGFR L858R; agent alone"}, "NCI-H2172 cells": {"test_system": "NCI-H2172 cells", "assay": "3D-TGA", "type": "cell-based", "details": "Homo sapiens, read-out: IC50 in 3D-TGA Osimertinib; NCI-H2172, LUN, EGFR L858R; agent alone"}, "MIA PaCa-2 cells": {"test_system": "MIA PaCa-2 cells", "assay": "3D-TGA", "type": "cell-based, human", "details": "Homo sapiens, read-out: IC50 in 3D-TGA Osimertinib; MIA PACA-2, PAN, KRAS G12C; agent alone"}, "NCI-H1650 cells": {"test_system": "NCI-H1650 cells", "assay": "3D-TGA", "type": "cell-based", "details": "Homo sapiens, NCI-H1650, read-out: IC50 in 3D-TGA Osimertinib"}, "NCI-H508 cells": {"test_system": "NCI-H508 cells", "assay": "3D-TGA", "type": "cell-based", "details": "Homo sapiens, read-out: IC50 in 3D-TGA Osimertinib; NCI-H508, COL, BRAF G596R; agent alone"}, "HCC827 cells": {"test_system": "HCC827 cells", "assay": "cells", "type": "cell-based", "details": "Homo sapiens, HCC827, read-out: IC50 in 3D-TGA Osimertinib"}, "NCI-H1792 cells": {"test_system": "NCI-H1792 cells", "assay": "3D-TGA", "type": "cell-based, human", "details": "Homo sapiens, read-out: IC50 in 3D-TGA Osimertinib; NCI-H1792, LUN, KRAS G12C; agent alone"}, "HT-29 cells": {"test_system": "HT-29 cells", "assay": "3D-TGA", "type": "cell-based, human", "details": "Homo sapiens, HT-29, read-out: IC50 in 3D-TGA Encorafenib", "in_short": "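Seeding is in 3D BME/medium (1:1) matrix at 3000 cells per well, with growth at 37° C in 5% O2 and 5% CO2. EdU incorporation is detected via copper-catalysed click staining, and segmented images give the fraction of proliferating cells.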"}, "[1]": {"test_system": "HT-29 BRAF^V600E colorectal cancer xenograft", "assay": "HT-29 colorectal xenograft tumor model", "type": "in vivo, athymic nude mice", "details": "HT-29 BRAFV600E xenograft", "description": "An integrated translational platform with integrated bioinformatics utilized patient-aligned model systems was used to identify key factors that help predict response to Compound A and its unique DCI profile."}, "A375 cells": {"test_system": "A375 cells", "assay": "3D-TGA", "type": "cell-based", "details": "Homo sapiens, A-375, read-out: IC50 in 3D-TGA Encorafenib", "procedure": "Cells were seeded in 3D cultures in a black-walled, clear-bottom, non-tissue culture treated, 384-well plate (3000 cells per well) using a 1:1 mixture of BME and a custom media and grown in a humidified incubator with 5% CO2 and 5% O2, which approximates capillary levels for each gas, at 37° C. […] Cells were assessed for cell proliferation using EdU cell proliferation staining. […] Cells were permeabilized with 30 μL of filtered 0.5% Triton X-100 in PBS for 20 minutes at room temperature. Samples were washed twice gently with PBS. Cells were stained utilizing click-iT chemistry by adding 20 μL of staining cocktail containing 2 mM copper sulfate, 8 μM sulfo-Cy5-azide, and 20 mg/ml ascorbic acid in PBS and incubated 30-60 minutes at room temperature in dark. […] Plates were imaged with the Molecular Devices Pico ImageXpress. Images were segmented and percentage of cells with EdU incorporation was quantified to calculate antiproliferative effects of the drugs.\nFive (5)-ethynyl-2′-deoxyuridine (EdU) data was represented as percentage EdU positive cells quantified by high content imaging from the Molecular Devices ImageXpress® Pico."}}, "note": "Where two headings read alike, the source gives them in different places."}
{"smiles": "C=CC(=O)Nc1cc(Nc2nccc(-c3cn(C)c4ccccc34)n2)c(OC)cc1N(C)CCN(C)C", "note": "[Osimertinib, osimertinib]", "values": [{"measurement": "IC50", "setting": "NCI-H820 cells", "result": 1000, "unit": "nM"}, {"measurement": "IC50", "setting": "LS411N cells; read-out: IC50 in 3D-TGA Osimertinib, agent alone", "result": 1000, "unit": "nM"}, {"measurement": "IC50", "setting": "NCI-H358 cells", "result": 1000, "unit": "nM"}, {"measurement": "IC50", "setting": "SK-CO-1 cells", "result": 1000, "unit": "nM"}, {"measurement": "IC50", "setting": "NCI-H1975 cells", "result": "[…]"}, {"measurement": "IC50", "setting": "NCI-H2172 cells", "result": 1000, "unit": "nM"}, {"measurement": "IC50", "setting": "MIA PaCa-2 cells", "result": 1000, "unit": "nM"}, {"measurement": "IC50", "setting": "NCI-H1650 cells", "result": 1000, "unit": "nM"}, {"measurement": "IC50", "setting": "NCI-H508 cells", "result": 1000, "unit": "nM"}, {"measurement": "IC50", "setting": "HCC827 cells", "result": 50, "unit": "nM"}, {"measurement": "IC50", "setting": "NCI-H1792 cells", "result": 1000, "unit": "nM"}]}
{"smiles": "COC(=O)N[C@@H](C)CNc1nccc(-c2cn(C(C)C)nc2-c2cc(Cl)cc(NS(C)(=O)=O)c2F)n1", "note": "[encorafenib]", "values": [{"measurement": "IC50", "setting": "HT-29 cells", "result": "> 1000", "unit": "nM"}, {"measurement": "tumor growth inhibition, monotherapy", "setting": "[1]", "result": "superior tumor growth inhibition to binimetinib"}, {"measurement": "IC50", "setting": "LS411N cells; read-out: IC50 in 3D-TGA Encorafenib", "result": "> 1000", "unit": "nM"}, {"measurement": "IC50", "setting": "A375 cells", "result": "< 50", "unit": "nM"}]}
